Assay results published in ChEMBL document CHEMBL1143107 (Bioorg Med Chem, 2008).

Legend:
Homo sapiens [1] = species: Homo sapiens; assay: Ratio of IC50 for human COX1 to IC50 for human COX2
Homo sapiens [2] = species: Homo sapiens; assay: Ratio of IC50 for human COX1 to IC50 for human COX2 in human whole blood; type: tissue-based
[3] = target: T1, Prostaglandin G/H synthase 2 (Homo sapiens, UniProt P35354)
T1 sequence (P35354 whole entry): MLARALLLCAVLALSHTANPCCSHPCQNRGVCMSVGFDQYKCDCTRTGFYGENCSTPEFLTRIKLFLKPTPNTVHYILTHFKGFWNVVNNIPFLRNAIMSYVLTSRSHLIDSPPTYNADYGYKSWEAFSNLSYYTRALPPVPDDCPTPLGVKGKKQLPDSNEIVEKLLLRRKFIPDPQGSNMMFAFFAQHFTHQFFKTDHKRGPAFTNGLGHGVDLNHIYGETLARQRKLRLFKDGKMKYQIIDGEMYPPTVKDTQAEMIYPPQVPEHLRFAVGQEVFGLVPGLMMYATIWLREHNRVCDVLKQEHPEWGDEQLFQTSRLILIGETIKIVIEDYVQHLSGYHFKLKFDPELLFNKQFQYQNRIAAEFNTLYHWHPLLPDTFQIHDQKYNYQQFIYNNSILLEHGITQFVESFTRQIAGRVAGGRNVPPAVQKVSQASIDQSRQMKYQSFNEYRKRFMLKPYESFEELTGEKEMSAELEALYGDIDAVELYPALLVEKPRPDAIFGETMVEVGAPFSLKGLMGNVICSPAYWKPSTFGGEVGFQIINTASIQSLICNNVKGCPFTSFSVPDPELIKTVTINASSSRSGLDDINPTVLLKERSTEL
Description: Inhibition of human COX2 in human whole blood

[4] = target: T1, Prostaglandin G/H synthase 2; remark: listed apart in the source

SMILES	Ratio IC50 (Homo sapiens [1])	IC50 [3]	IC50 [4]	Ratio IC50 (Homo sapiens [2])
Cn1cccc1CNc1cc(C(F)(F)F)nc(-c2ccc(S(C)(=O)=O)cc2)n1	> 562	0.0288 µM	0.178 µM	> 3470
NS(=O)(=O)c1ccc(-c2nc(NCc3ccsc3)cc(C(F)(F)F)n2)cc1	1390	0.0519 µM	0.072 µM	> 193
NS(=O)(=O)c1ccc(-c2nc(NCc3cc4ccccc4s3)cc(C(F)(F)F)n2)cc1	6570	0.14 µM	0.0152 µM	> 71
CS(=O)(=O)c1ccc(-c2nc(NCc3ccc4ccccc4c3)cc(C(F)(F)F)n2)cc1	> 1	> 10 µM	> 10 µM	> 1

Second part, led by results:

Ratio IC50 (Homo sapiens [1])	IC50 [3]	IC50 [4]	SMILES	Ratio IC50 (Homo sapiens [2])
> 1	> 10 µM	10 µM	CS(=O)(=O)c1ccc(-c2nc(NCc3csc4ccccc34)cc(C(F)(F)F)n2)cc1	> 1
> 498	0.14 µM	0.201 µM	CS(=O)(=O)c1ccc(-c2nc(NCc3ccco3)cc(C(F)(F)F)n2)cc1	> 497
> 6920	2.79 µM	0.0144 µM	NS(=O)(=O)c1ccc(-c2nc(NCc3ccco3)cc(C(F)(F)F)n2)cc1	> 3
